In patent US6525001B1, “Substituted pyrimidine and pyridine herbicides” (Mid-American Commercialization Corporation, priority 1997, dated 2003):

How the values were obtained:
Assay type in all cases: in vivo
[1] = tested on: bedstraw (Galium aparine); assay: Test B pre-/postemergence; parameters: key: 0 is no effect; 10 is complete control
Source text: (§1) Seeds of bedstraw (Galium aparine), blackgrass (Alopecurus myosuroides), broadleaf signalgrass (Brachiaria decumbens), cocklebur (Xanthium strumarium), corn (Zea mays), crabgrass (Digitaria sanguinalis), giant foxtail (Setaria faberii), lambsquarters (Chenopodium album), momingglory (Ipomoea hederacea), pigweed (Amaranthus retroflexus), rape (Brassica napus), soybean (Glycine max), sugar beet (Beta vulgaris), velvetleaf (Abutilon theophrasti), wheat (Triticum aestivum), wild oat (Avena fatua) and purple nutsedge (Cyperus rotundus) tubers were planted and treated preemergence with test chemicals formulated in a non-phytotoxic solvent mixture which included a surfactant.
(§2) At the same time, these crop and weed species were also treated with postemergence applications of test chemicals formulated in the same manner. Plants ranged in height from 2 to 18 cm (1- to 4-leaf stage) for postemergence treatments. Plant species in the flood test consisted of rice (Oryza sativa), smallflower flatsedge (Cyperus difformis), duck salad (Heteranthera limosa) and bamyardgrass (Echinochloa crus-galli) grown to the 2-leaf stage for testing. Treated plants and controls were maintained in a greenhouse for twelve to sixteen days, after which all species were compared to controls and visually evaluated. Plant response ratings, summarized in Table B, are based on a scale of 0 to 10 where 0 is no effect and 10 is complete control. A dash (−) response means no test result.

[2] = tested on: blackgrass (Alopecurus myosuroides); assay: Test B pre-/postemergence; parameters: key: 0 is no effect; 10 is complete control
Source text: as §1, §2

[3] = tested on: broadleaf signalgrass (Brachiaria decumbens); assay: Test B pre-/postemergence; parameters: key: 0 is no effect; 10 is complete control
Source text: as §1, §2

[4] = tested on: cocklebur (Xanthium strumarium); assay: Test B pre-/postemergence; parameters: key: 0 is no effect; 10 is complete control
Source text: as §1, §2

corn (Zea mays) = assay: Test B pre-/postemergence; parameters: key: 0 is no effect; 10 is complete control
Source text: as §1, §2

[5] = tested on: crabgrass (Digitaria sanguinalis); assay: Test B pre-/postemergence; parameters: key: 0 is no effect; 10 is complete control
Source text: as §1, §2

[6] = tested on: giant foxtail (Setaria faberii); assay: Test B pre-/postemergence; parameters: key: 0 is no effect; 10 is complete control
Source text: as §1, §2

[7] = tested on: momingglory (Ipomoea hederacea); assay: Test B pre-/postemergence; parameters: key: 0 is no effect; 10 is complete control
Source text: as §1, §2

[8] = tested on: pigweed (Amaranthus retroflexus); assay: Test B pre-/postemergence; parameters: key: 0 is no effect; 10 is complete control
Source text: as §1, §2

[9] = tested on: purple nutsedge (Cyperus rotundus); assay: Test B pre-/postemergence; parameters: key: 0 is no effect; 10 is complete control
Source text: as §1, §2

rape (Brassica napus) = assay: Test B pre-/postemergence; parameters: key: 0 is no effect; 10 is complete control
Source text: as §1, §2

soybean (Glycine max) = assay: Test B pre-/postemergence; parameters: key: 0 is no effect; 10 is complete control
Source text: as §1, §2

[10] = tested on: sugar beet (Beta vulgaris); assay: Test B pre-/postemergence; parameters: key: 0 is no effect; 10 is complete control
Source text: as §1, §2

[11] = tested on: velvetleaf (Abutilon theophrasti); assay: Test B pre-/postemergence; parameters: key: 0 is no effect; 10 is complete control
Source text: as §1, §2

[12] = tested on: wheat (Triticum aestivum); assay: Test B pre-/postemergence; parameters: key: 0 is no effect; 10 is complete control
Source text: as §1, §2

wild oat (Avena fatua) = assay: Test B pre-/postemergence; parameters: key: 0 is no effect; 10 is complete control
Source text: as §1, §2

[13] = tested on: bamyardgrass (Echinochloa crus-galli); assay: Test B flood test
In short: (§3)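 Read-out is a visual response score from 0 (no effect) to 10 (complete control), assigned by comparison with untreated controls. Treatment was applied at the 2-leaf stage, and plants stayed in the greenhouse for twelve to sixteen days before scoring.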

[14] = tested on: duck salad (Heteranthera limosa); assay: Test B flood test
In short: as §3

rice (Oryza sativa) = assay: Test B flood test
In short: as §3

[15] = tested on: smallflower flatsedge (Cyperus difformis); assay: Test B flood test
In short: as §3

[16] = Rate 62 g/ha, Postemergence (flood test)
[17] = Rate 125 g/ha, Postemergence, flood test
[18] = Rate 250 g/ha, Postemergence (flood test species)

Cc1cnc(-c2ccc(F)c(Cl)c2)nc1Cc1cccc(C(F)(F)F)c1 [Compound 25]
Plant response rating, Bedstraw ([1]; Rate 62 g/ha, Postemergence): 9 | Bedstraw plant response rating ([1]; Rate 62 g/ha, Preemergence): 1 | Plant response rating, Bedstraw ([1]; Rate 125 g/ha, Postemergence): 10 | Bedstraw plant response rating ([1]; Rate 125 g/ha, Preemergence): 1 | Plant response rating, Bedstraw ([1]; Rate 250 g/ha, Postemergence): 10 | Plant response rating, Bedstraw ([1]; Rate 250 g/ha, Preemergence): 2 | Plant response rating, Blackgrass ([2]; Rate 62 g/ha, Postemergence): 3 | Blackgrass plant response rating ([2]; Rate 62 g/ha, Preemergence): 1 | Plant response rating, Blackgrass ([2]; Rate 125 g/ha, Postemergence): 4 | Blackgrass plant response rating ([2]; Rate 125 g/ha, Preemergence): 5 | Plant response rating, Blackgrass ([2]; Rate 250 g/ha, Postemergence): 8 | Plant response rating, Blackgrass ([2]; Rate 250 g/ha, Preemergence): 8 | Plant response rating, B. signalgrass ([3]; Rate 62 g/ha, Postemergence): 2 | B. signalgrass plant response rating ([3]; Rate 62 g/ha, Preemergence): 1 | Plant response rating, B. signalgrass ([3]; Rate 125 g/ha, Postemergence): 3 | B. signalgrass plant response rating ([3]; Rate 125 g/ha, Preemergence): 2 | Plant response rating, B. signalgrass ([3]; Rate 250 g/ha, Postemergence): 3 | Plant response rating, B. signalgrass ([3]; Rate 250 g/ha, Preemergence): 6 | Plant response rating, Cocklebur ([4]; Rate 62 g/ha, Postemergence): 9 | Cocklebur plant response rating ([4]; Rate 62 g/ha, Preemergence): 0 | Plant response rating, Cocklebur ([4]; Rate 125 g/ha, Postemergence): 9 | Cocklebur plant response rating ([4]; Rate 125 g/ha, Preemergence): 0 | Plant response rating, Cocklebur ([4]; Rate 250 g/ha, Postemergence): 9 | Plant response rating, Cocklebur ([4]; Rate 250 g/ha, Preemergence): 8 | Plant response rating, Corn (corn (Zea mays); Rate 62 g/ha, Postemergence): 1 | Corn plant response rating (corn (Zea mays); Rate 62 g/ha, Preemergence): 0 | Plant response rating, Corn (corn (Zea mays); Rate 125 g/ha, Postemergence): 2 | Corn plant response rating (corn (Zea mays); Rate 125 g/ha, Preemergence): 0 | Plant response rating, Corn (corn (Zea mays); Rate 250 g/ha, Postemergence): 3 | Plant response rating, Corn (corn (Zea mays); Rate 250 g/ha, Preemergence): 0 | Plant response rating, Crabgrass ([5]; Rate 62 g/ha, Postemergence): 7 | Crabgrass plant response rating ([5]; Rate 62 g/ha, Preemergence): 0 | Plant response rating, Crabgrass ([5]; Rate 125 g/ha, Postemergence): 7 | Crabgrass plant response rating ([5]; Rate 125 g/ha, Preemergence): 0 | Plant response rating, Crabgrass ([5]; Rate 250 g/ha, Postemergence): 10 | Plant response rating, Crabgrass ([5]; Rate 250 g/ha, Preemergence): 1 | Plant response rating, Giant foxtail ([6]; Rate 62 g/ha, Postemergence): 3 | Giant foxtail plant response rating ([6]; Rate 62 g/ha, Preemergence): 1 | Plant response rating, Giant foxtail ([6]; Rate 125 g/ha, Postemergence): 6 | Giant foxtail plant response rating ([6]; Rate 125 g/ha, Preemergence): 4 | Plant response rating, Giant foxtail ([6]; Rate 250 g/ha, Postemergence): 8 | Plant response rating, Giant foxtail ([6]; Rate 250 g/ha, Preemergence): 9 | Plant response rating, Morningglory ([7]; Rate 62 g/ha, Postemergence): 10 | Morningglory plant response rating ([7]; Rate 62 g/ha, Preemergence): 3 | Plant response rating, Morningglory ([7]; Rate 125 g/ha, Postemergence): 10 | Morningglory plant response rating ([7]; Rate 125 g/ha, Preemergence): 3 | Plant response rating, Morningglory ([7]; Rate 250 g/ha, Postemergence): 10 | Plant response rating, Morningglory ([7]; Rate 250 g/ha, Preemergence): 10 | Plant response rating, Redroot pigweed ([8]; Rate 62 g/ha, Postemergence): 10 | Redroot pigweed plant response rating ([8]; Rate 62 g/ha, Preemergence): 1 | Plant response rating, Redroot pigweed ([8]; Rate 125 g/ha, Postemergence): 10 | Redroot pigweed plant response rating ([8]; Rate 125 g/ha, Preemergence): 3 | Plant response rating, Redroot pigweed ([8]; Rate 250 g/ha, Postemergence): 10 | Plant response rating, Redroot pigweed ([8]; Rate 250 g/ha, Preemergence): 9 | Plant response rating, Nutsedge ([9]; Rate 62 g/ha, Postemergence): 1 | Nutsedge plant response rating ([9]; Rate 62 g/ha, Preemergence): 0 | Plant response rating, Nutsedge ([9]; Rate 125 g/ha, Postemergence): 1 | Nutsedge plant response rating ([9]; Rate 125 g/ha, Preemergence): 0 | Plant response rating, Nutsedge ([9]; Rate 250 g/ha, Postemergence): 2 | Plant response rating, Nutsedge ([9]; Rate 250 g/ha, Preemergence): 0 | Plant response rating, Rape (rape (Brassica napus); Rate 62 g/ha, Postemergence): 10 | Rape plant response rating (rape (Brassica napus); Rate 62 g/ha, Preemergence): 2 | Plant response rating, Rape (rape (Brassica napus); Rate 125 g/ha, Postemergence): 10 | Rape plant response rating (rape (Brassica napus); Rate 125 g/ha, Preemergence): 7 | Plant response rating, Rape (rape (Brassica napus); Rate 250 g/ha, Postemergence): 10 | Plant response rating, Rape (rape (Brassica napus); Rate 250 g/ha, Preemergence): 10 | Plant response rating, Soybean (soybean (Glycine max); Rate 62 g/ha, Postemergence): 4 | Soybean plant response rating (soybean (Glycine max); Rate 62 g/ha, Preemergence): 0 | Plant response rating, Soybean (soybean (Glycine max); Rate 125 g/ha, Postemergence): 7 | Soybean plant response rating (soybean (Glycine max); Rate 125 g/ha, Preemergence): 0 | Plant response rating, Soybean (soybean (Glycine max); Rate 250 g/ha, Postemergence): 7 | Plant response rating, Soybean (soybean (Glycine max); Rate 250 g/ha, Preemergence): 1 | Plant response rating, Sugarbeets ([10]; Rate 62 g/ha, Postemergence): 10 | Sugarbeets plant response rating ([10]; Rate 62 g/ha, Preemergence): 6 | Plant response rating, Sugarbeets ([10]; Rate 125 g/ha, Postemergence): 10 | Sugarbeets plant response rating ([10]; Rate 125 g/ha, Preemergence): 8 | Plant response rating, Sugarbeets ([10]; Rate 250 g/ha, Postemergence): 10 | Plant response rating, Sugarbeets ([10]; Rate 250 g/ha, Preemergence): 9 | Plant response rating, Velvetleaf ([11]; Rate 62 g/ha, Postemergence): 8 | Velvetleaf plant response rating ([11]; Rate 62 g/ha, Preemergence): 0 | Plant response rating, Velvetleaf ([11]; Rate 125 g/ha, Postemergence): 9 | Velvetleaf plant response rating ([11]; Rate 125 g/ha, Preemergence): 0 | Plant response rating, Velvetleaf ([11]; Rate 250 g/ha, Postemergence): 9 | Plant response rating, Velvetleaf ([11]; Rate 250 g/ha, Preemergence): 2 | Plant response rating, Wheat ([12]; Rate 62 g/ha, Postemergence): 2 | Wheat plant response rating ([12]; Rate 62 g/ha, Preemergence): 0 | Plant response rating, Wheat ([12]; Rate 125 g/ha, Postemergence): 4 | Wheat plant response rating ([12]; Rate 125 g/ha, Preemergence): 1 | Plant response rating, Wheat ([12]; Rate 250 g/ha, Postemergence): 4 | Plant response rating, Wheat ([12]; Rate 250 g/ha, Preemergence): 2 | Plant response rating, Wild oats (wild oat (Avena fatua); Rate 62 g/ha, Postemergence): 3 | Wild oats plant response rating (wild oat (Avena fatua); Rate 62 g/ha, Preemergence): 1 | Plant response rating, Wild oats (wild oat (Avena fatua); Rate 125 g/ha, Postemergence): 3 | Wild oats plant response rating (wild oat (Avena fatua); Rate 125 g/ha, Preemergence): 3 | Plant response rating, Wild oats (wild oat (Avena fatua); Rate 250 g/ha, Postemergence): 4 | Plant response rating, Wild oats (wild oat (Avena fatua); Rate 250 g/ha, Preemergence): 5 | Plant response rating, Barnyardgrass [13, 16]: 3 | Plant response rating, Barnyardgrass [13, 17]: 4 | Plant response rating, Barnyardgrass [13, 18]: 5 | Plant response rating, Ducksalad [14, 16]: 3 | Plant response rating, Ducksalad [14, 17]: 4 | Plant response rating, Ducksalad [14, 18]: 6 | Plant response rating, Rice (rice (Oryza sativa); [16]): 3 | Plant response rating, Rice (rice (Oryza sativa); [17]): 4 | Plant response rating, Rice (rice (Oryza sativa); [18]): 5 | Plant response rating, S. Flatsedge [15, 16]: 3 | Plant response rating, S. Flatsedge [15, 17]: 5 | Plant response rating, S. Flatsedge [15, 18]: 7
